Experimental findings from US20240197666A1, “DITERPENOID COMPOUNDS THAT ACT ON PROTEIN KINASE C (PKC)” (K-Gen Therapeutics, Inc., priority 2021, published 2024) are described below.

The target of assay [1] is T1, C1b domain of human PKD1 (PKCμ) (Homo sapiens, UniProt Q15139).
T1 construct: Genes encoding C1b domains of human PKCα, δ, ε, θ, and PKD1 (PKCμ) were synthesized; made in house; host or cells: E. coli BL21(DE3)
T1 sequence (Q15139 270-320 limits assumed): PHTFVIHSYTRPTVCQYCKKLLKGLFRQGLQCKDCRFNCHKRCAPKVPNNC
As to the kind of experiment: Competitive 3H-PDBu binding assay, C1b domain of PKD1 (PKCμ). Conditions: 3H-PDBu competition. The protocol: (§1) Compounds described in this disclosure were tested for binding affinity to C1b domain of PKC isoforms. Compound binding affinity to C1b domain of PKC isoforms was derived from competitive binding assay using radioactive tracer ^3H-PDBu and recombinant GST-C1b or full-length of human PKC proteins based on modified procedures from Methods in Molecular Biology, vol.
(§2) Genes encoding C1b domains of human PKCα, δ, ε, θ, and PKD1 (PKCμ) were synthesized and inserted into pGEX-2TK or pGEX-4T1 vectors for expression and production of GST-C1b proteins in E. coli BL21(DE3) via IPTG induction. The target proteins were purified by glutathione sepharose 4B and followed by ion exchange chromatography if needed to achieve purity >70%. Aliquots of the purified proteins were stored at −80 degree for binding assay (storage buffer: 20 mM Tris pH 8.0, 200 mM NaCl, 10% glycerol, 1 mM DTT).
(§3) The plate was incubated at 37° C. on a shaker at 300 rpm for 10 minutes and then put on ice for 20 minutes. […] The bottom of the filter plate was sealed and 50 μL of MicroScint-20 (PerkinElmer) cocktail was added to each well. ^3H-PDBu trapped in each well was counted using PerkinElmer MicroBeta2 Reader. Data were analyzed using GraphPad Prism5 with the model “log(inhibitor) vs. response-variable slope” to fit the IC50, and then IC50 was transformed to Ki using Cheng-Prusoff equation: Ki=IC50/(1+added radio ligand/Kd). Kd is the binding affinity of each protein preparation to ^3H-PDBu, determined experimentally.

For a further assay, the system named is A549 cell line. In words: Proliferation of A549 (CellTiter Glo). The class given is cell-based. Conditions: Homo sapiens, A549, 96 h, read-out: IC50 μM (A549 Cell Line). On the procedure:
(§4) The diterpenoid compounds were tested in A549, a non-small cell lung cancer cell line harboring a K-Ras activating mutation. Briefly, A549 cells at a density of 1,000 cells/well were seeded in 96-well plates and incubated at 37° C. for 24 hours. A series of different concentrations of compound stocks (500×) were prepared by 3-fold serial dilution in DMSO. These compounds were further diluted in culture media and then added to cells so that the final DMSO concentration was not exceeding 0.25%. After 96 hours of incubation, 50 μL of CellTiter Glo reagent (Promega) was added to each well and luminescence was measured after 10 minutes using EnVision (PerkinElmer). Luminescence from cells treated with DMSO alone was set as Max and % of inhibition was calculated as follows: Inhibition %=(Max-Sample value)/Max×100. Data was analyzed using XL-fit software (ID Business Solutions Ltd.) and IC50, relative IC50, and % of top inhibition was calculated. Some of the compounds in this disclosure were very potent in blocking proliferation of A549 lung cancer cells at low nM range. In addition, potency of inhibiting A549 proliferation correlated well with its binding affinity to PKCs for this series of compounds. In other words, higher affinity binders had stronger inhibitory effects on A549 proliferation. This further support the notion that activation, rather than inhibition, of certain PKC isoforms is required to block proliferation of cancer cells, some of which may harbor K-Ras mutations. This is in sharp contrast to previous literature and common belief that inhibition of PKC is necessary to block cancer cell growth (Kang, 2014, New Journal of Science, 2014:1-36). Data presented here is in agreement with recent findings that many loss-of-function but not gain-of-function mutations of PKC isoforms have been identified in many human cancers (Antal et al., 2015, Cell, 160:489-502).

The target in the next assay is T2, C1b domain of human PKCε (Homo sapiens, UniProt Q02156).
T2 construct: Genes encoding C1b domains of human PKCα, δ, ε, θ, and PKD1 (PKCμ) were synthesized; made in house; host or cells: E. coli BL21(DE3)
T2 sequence (Q02156 242-292 limits assumed): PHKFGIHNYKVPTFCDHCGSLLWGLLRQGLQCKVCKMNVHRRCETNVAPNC
As to the kind of experiment: biochemical. In kind it is binding. Conditions: 3H-PDBu competition. On the procedure: as §1, §2, §3

The target in the next assay is T3, C1b domain of human PKCδ (Homo sapiens, UniProt Q05655).
T3 construct: Genes encoding C1b domains of human PKCα, δ, ε, θ, and PKD1 (PKCμ) were synthesized; made in house; host or cells: E. coli BL21(DE3)
T3 sequence (Q05655 230-280 limits assumed): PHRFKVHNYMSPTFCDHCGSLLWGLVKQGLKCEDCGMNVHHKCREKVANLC
In words: biochemical. The class given is binding. The settings on record: 3H-PDBu competition. The protocol:
as §1, §2, §3

In the next assay the target is T4, C1b domain of human PKCθ (Homo sapiens, UniProt Q04759).
T4 construct: Genes encoding C1b domains of human PKCα, δ, ε, θ, and PKD1 (PKCμ) were synthesized; made in house; host or cells: E. coli BL21(DE3)
T4 sequence (Q04759 231-281 limits assumed): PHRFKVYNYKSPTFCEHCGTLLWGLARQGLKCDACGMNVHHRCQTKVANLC
In words: biochemical. Conditions: 3H-PDBu competition. In kind it is binding. The protocol:
as §1, §2, §3

A further assay concerns HL-60 (Leukemia). In words: Proliferation of HL-60. The class given is cell-based. On the procedure: as §4
(§5) The compounds in this disclosure were tested for their potency in blocking proliferation of a few other cancer cells lines, including K-Ras mutant pancreatic cell lines Panc2.13 and KP-4, leukemia cell line HL-60, and lymphoma cell lines Namalwa and Mino. Similar procedures as in Example 67 were followed. Initial cell numbers seeded in 96-well plates were different for different cell lines: 3000 cells/well for Panc2.13; 800-1000 cells/well for KP-4; 5000 cells/well for HL-60; 5000-10000 cells/well for Namalwa and Mino. A ratio of (IC50 of K101)/(IC50 of compound) (data in parenthesis in Table 5) was used to normalize the compound potency from different assay batches to a common comparator K101.

A further assay deals with Namalwa (Lymphoma). In words: Proliferation of Namalwa. In kind it is cell-based. On the procedure:
as §4, §5

The next assay relates to Mino (Lymphoma). As to the kind of experiment: Proliferation of Mino. The class given is cell-based. The protocol: as §4, §5
Assay [2] relates to NFκB-driven transcription in HeLa-NFκB luciferase reporter cell line. In words: NFκB luciferase reporter assay. Conditions: Homo sapiens, HeLa, 16 h, read-out: NFκB-luc HeLa cells EC50 (μM).
Procedure: A HeLa-NFκB luciferase reporter cell line (Wuxi Biology) was used to assess a group of PKC activator compounds for their ability to activate NFκB-driven transcription. […] One set of cells was assayed for luciferase activity (Promega, Cat #E1500) and the other set was assayed to determine the number of viable cells (for cell number normalization) using CellTiter-Glo (CTG) kit (Promega, Cat #G7570) according to manufacture's procedures. Normalized data (luciferase value/CTG value) were analyzed using GraphPad Prism5 to calculate EC50 for each compound (see Table 8).
To assess if activation of PKC is required for these compounds to activate NFκB, several PKC inhibitors including broad-spectrum and conventional PKC inhibitors were tested. In the assay described above, PKC inhibitors were added at the same time as the PKC activator compounds.

`CC1=C[C@H]2[C@@]3(O)[C@H](C)C[C@]4(OC(=O)CCc5scnc5C)[C@H]([C@@H]3C=C(CO)C[C@]2(O)C1=O)C4(C)C` showed a Ki in assay [1] of 10 to 30 nM. In addition, the IC50 with A549 cell line fell in the range of 0.2 to 0.6 µM.

As to `CC1=C[C@H]2[C@@]3(O)[C@H](C)C[C@]4(OC(=O)[C@H](N)CCCCCCc5ccc(C(F)(F)F)cc5)[C@H]([C@@H]3C=C(CO)C[C@]2(O)C1=O)C4(C)C`, the Ki on C1b domain of human PKCε lay within 60 to 100 nM; in [1], 10 to 30 nM. In addition, the IC50 in the assay on A549 cell line lay in the range of 0.06 to 0.1 µM.

Compound `CSC[C@H](N)C(=O)O[C@@]12C[C@@H](C)[C@@]3(O)[C@@H](C=C(CO)C[C@]4(O)C(=O)C(C)=C[C@@H]34)[C@@H]1C2(C)C` gave a Ki in assay [1] of 60 to 100 nM. Further, in the assay with A549 cell line, the IC50 is 5 to 10 µM.

Compound `CC1=C[C@H]2[C@@]3(O)[C@H](C)C[C@]4(OC(=O)C[C@H](N)c5ccccc5)[C@H]([C@@H]3C=C(CO)C[C@]2(O)C1=O)C4(C)C` gave a Ki in [1] of 10 to 30 nM. Moreover, the IC50 in the assay with A549 cell line was in the range of 1 to 2 µM.

With `CC1=C[C@H]2[C@@]3(O)[C@H](C)C[C@]4(OC(=O)[C@H](N)CCCCCCc5ccc(C(F)F)cc5)[C@H]([C@@H]3C=C(CO)C[C@]2(O)C1=O)C4(C)C`, the Ki (on C1b domain of human PKCδ; in assay [1]) was 10 to 30 nM throughout. In the assay with A549 cell line, the IC50 lay within 0.1 to 0.2 µM.

`CC1=C[C@H]2[C@@]3(O)[C@H](C)C[C@]4(OC(=O)CCC5CCCC5)[C@H]([C@@H]3C=C(CO)C[C@]2(O)C1=O)C4(C)C` gave a Ki at C1b domain of human PKCθ of 10 to 30 nM. Moreover, the IC50 in the assay on A549 cell line is 0.03 to 0.06 µM; in the assay with HL-60 (Leukemia) (Homo sapiens, HL-60, read-out: IC50 HL-60 (Leukemia)), 30 to 60 nM; with Namalwa (Lymphoma) (read-out: IC50 Namalwa (Lymphoma)) it was 30 to 60 nM; in the assay with Mino (Lymphoma) (Homo sapiens, MINO, read-out: IC50 Mino (Lymphoma)), 1 to 10 nM. Moreover, the “ratio (IC50 of K101)/(IC50 of compound) HL-60” value in the assay on HL-60 (Leukemia) worked out at 9.23. Further, in the assay on Namalwa (Lymphoma), the “ratio (IC50 of K101)/(IC50 of compound) Namalwa” value worked out at 1.73. Also, the “ratio (IC50 of K101)/(IC50 of compound) Mino” value in the assay on Mino (Lymphoma) was determined as 11. Besides, in [2], the EC50 was 0.06 to 0.1 µM.

The compound `CC1=C[C@H]2[C@@]3(O)[C@H](C)C[C@]4(OC(=O)C[C@@H](N)Cc5ccccc5)[C@H]([C@@H]3C=C(CO)C[C@]2(O)C1=O)C4(C)C` yielded a Ki in assay [1] of 10 to 30 nM. In addition, the IC50 with A549 cell line lay in the range of 1 to 2 µM.

In turn, `CC1=C[C@H]2[C@@]3(O)[C@H](C)C[C@]4(OC(=O)[C@H](N)CCCc5ccccc5)[C@H]([C@@H]3C=C(CO)C[C@]2(O)C1=O)C4(C)C` returned a Ki in assay [1] of 10 to 30 nM. Also, the IC50 with A549 cell line is 0.2 to 0.6 µM.

Consider `CC1=C[C@H]2[C@@]3(O)[C@H](C)C[C@]4(OC(=O)CC5CC6(CNC6)C5)[C@H]([C@@H]3C=C(CO)C[C@]2(O)C1=O)C4(C)C`, for which, in assay [1], the Ki was in the range of 10 to 30 nM. Moreover, in the assay on A549 cell line, the IC50 is more than 30 µM.
